Data: PubChem BioAssay AID2060912 (Molecular Pharmacology Branch, DTP, NCI, 2025)

Test system: HUVEC/MSC spheroids viability
Experiment: Human HUVEC/MSC cell line growth inhibition [KRAS2];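 as to viability, T/C: percent of DMSO vehicle control luminescence so 100% = untreated viability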
Conditions: for IC50: curve of first compound; for viability, T/C: stronger effect = lower value
Summary of the method: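 Stroma-only multicellular spheroids, formed from HUVEC and human MSCs at passages </=5, received RAS-pathway inhibitors with or without a second targeted drug. Dosing followed half-log dilutions from clinically achievable levels.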

[1] = second compound 0.00949 µM, first compound 0.000316 µM
[2] = second compound 0.00949 µM, first compound 0.001 µM
[3] = second compound 0.00949 µM, first compound 0.00316 µM
[4] = second compound 0.00949 µM, first compound 0.01 µM
[5] = second compound 0.00949 µM, first compound 0.0316 µM
[6] = second compound 0.00949 µM, first compound 0.1 µM
[7] = second compound 0.03 µM, first compound 0.000316 µM
[8] = second compound 0.03 µM, first compound 0.001 µM
[9] = second compound 0.03 µM, first compound 0.00316 µM
[10] = second compound 0.03 µM, first compound 0.01 µM
[11] = second compound 0.03 µM, first compound 0.0316 µM
[12] = second compound 0.03 µM, first compound 0.1 µM
[13] = second compound 0.0949 µM, first compound 0.000316 µM
[14] = second compound 0.0949 µM, first compound 0.001 µM
[15] = second compound 0.0949 µM, first compound 0.00316 µM
[16] = second compound 0.0949 µM, first compound 0.01 µM
[17] = second compound 0.0949 µM, first compound 0.0316 µM
[18] = second compound 0.0949 µM, first compound 0.1 µM
[19] = second compound 0.3 µM, first compound 0.000316 µM
[20] = second compound 0.3 µM, first compound 0.001 µM
[21] = second compound 0.3 µM, first compound 0.00316 µM
[22] = second compound 0.3 µM, first compound 0.01 µM
[23] = second compound 0.3 µM, first compound 0.0316 µM
[24] = second compound 0.3 µM, first compound 0.1 µM
[25] = second compound 0.949 µM, first compound 0.000316 µM
[26] = second compound 0.949 µM, first compound 0.001 µM
[27] = second compound 0.949 µM, first compound 0.00316 µM
[28] = second compound 0.949 µM, first compound 0.01 µM
[29] = second compound 0.949 µM, first compound 0.0316 µM
[30] = second compound 0.949 µM, first compound 0.1 µM
[31] = second compound 3 µM, first compound 0.000316 µM
[32] = second compound 3 µM, first compound 0.001 µM
[33] = second compound 3 µM, first compound 0.00316 µM
[34] = second compound 3 µM, first compound 0.01 µM
[35] = second compound 3 µM, first compound 0.0316 µM
[36] = second compound 3 µM, first compound 0.1 µM

With `CC(C)n1nc(-c2ccc3oc(N)nc3c2)c2c(N)ncnc21` + C=CC(=O)N1CCN(c2nc(OCC3CCCN3C)nc3c2CCN(c2cccc4cccc(C)c24)C3)CC1CC#N the IC50 (second compound 0.00949 µM) was 6.33 nM, the IC50 (second compound 0.03 µM) was 6.8 nM and the IC50 (second compound 0.0949 µM) was 4.34 nM. For the same compound, the IC50 (second compound 0.3 µM) was 3.35 nM, the IC50 (second compound 0.949 µM) was 0.512 nM and the IC50 (second compound 3 µM) was 22.2 nM. For the same compound, the viability, T/C [1] was 80.6%, the viability, T/C [2] was 64.1% and the viability, T/C [3] was 56.1%. For the same compound, the viability, T/C [4] was 43.1%, the viability, T/C [5] was 48.3% and the viability, T/C [6] was 39.8%. It also gave a viability, T/C [7] of 69.5%, a viability, T/C [8] of 65.7% and a viability, T/C [9] of 44.1%. It also gave a viability, T/C [10] of 54.1%, a viability, T/C [11] of 46.8% and a viability, T/C [12] of 42%. For the same compound, the viability, T/C [13] was 80.1%, the viability, T/C [14] was 64.7% and the viability, T/C [15] was 48.4%. It also gave a viability, T/C [16] of 49%, a viability, T/C [17] of 41.1% and a viability, T/C [18] of 40.8%. For the same compound, the viability, T/C [19] was 59.7%, the viability, T/C [20] was 67.6% and the viability, T/C [21] was 50.5%. The viability, T/C [22] was 43.5%, the viability, T/C [23] was 40.5% and the viability, T/C [24] was 36%. For the same compound, the viability, T/C [25] was 57.5%, the viability, T/C [26] was 47.5% and the viability, T/C [27] was 42.7%. For the same compound, the viability, T/C [28] was 34.5%, the viability, T/C [29] was 44.6% and the viability, T/C [30] was 44.3%. The viability, T/C [31] was 62.5%, the viability, T/C [32] was 66.8% and the viability, T/C [33] was 54.1%. It also gave a viability, T/C [34] of 58.6%, a viability, T/C [35] of 45.3% and a viability, T/C [36] of 40.7%.
Compound `CC1(C)CCC(CN2CCN(c3ccc(C(=O)NS(=O)(=O)c4ccc(NCC5CCOCC5)c([N+](=O)[O-])c4)c(Oc4cnc5[nH]ccc5c4)c3)CC2)=C(c2ccc(Cl)cc2)C1` + C=CC(=O)N1CCN(c2nc(OCC3CCCN3C)nc3c2CCN(c2cccc4cccc(C)c24)C3)CC1CC#N has an IC50 (second compound 0.00949 µM) of 5120 nM, an IC50 (second compound 0.03 µM) of 4760 nM and an IC50 (second compound 0.0949 µM) of 4680 nM. The IC50 (second compound 0.3 µM) was 3930 nM, the IC50 (second compound 0.949 µM) was 3550 nM and the IC50 (second compound 3 µM) was 3410 nM. It also gave a viability, T/C [5] of 105%, a viability, T/C [6] of 86.2% and a viability, T/C (second compound 0.00949 µM, first compound 0.316 µM) of 96.9%. The viability, T/C (second compound 0.00949 µM, first compound 1 µM) was 91.4%, the viability, T/C (second compound 0.00949 µM, first compound 3.16 µM) was 83.5% and the viability, T/C (second compound 0.00949 µM, first compound 10 µM) was 3.48%. The viability, T/C [11] was 99.3%, the viability, T/C [12] was 92% and the viability, T/C (second compound 0.03 µM, first compound 0.316 µM) was 111%. For the same compound, the viability, T/C (second compound 0.03 µM, first compound 1 µM) was 94.4%, the viability, T/C (second compound 0.03 µM, first compound 3.16 µM) was 76% and the viability, T/C (second compound 0.03 µM, first compound 10 µM) was 3.1%. It also gave a viability, T/C [17] of 83.1%, a viability, T/C [18] of 103% and a viability, T/C (second compound 0.0949 µM, first compound 0.316 µM) of 84.1%. It also gave a viability, T/C (second compound 0.0949 µM, first compound 1 µM) of 94.6%, a viability, T/C (second compound 0.0949 µM, first compound 3.16 µM) of 75.1% and a viability, T/C (second compound 0.0949 µM, first compound 10 µM) of 1.65%. For the same compound, the viability, T/C [23] was 73.4%, the viability, T/C [24] was 75.9% and the viability, T/C (second compound 0.3 µM, first compound 0.316 µM) was 78.7%. For the same compound, the viability, T/C (second compound 0.3 µM, first compound 1 µM) was 96.8%, the viability, T/C (second compound 0.3 µM, first compound 3.16 µM) was 61.3% and the viability, T/C (second compound 0.3 µM, first compound 10 µM) was 1.21%. It also gave a viability, T/C [29] of 67.6%, a viability, T/C [30] of 80.8% and a viability, T/C (second compound 0.949 µM, first compound 0.316 µM) of 72%. It also gave a viability, T/C (second compound 0.949 µM, first compound 1 µM) of 87.5%, a viability, T/C (second compound 0.949 µM, first compound 3.16 µM) of 55.3% and a viability, T/C (second compound 0.949 µM, first compound 10 µM) of 3.31%. It also gave a viability, T/C [35] of 81%, a viability, T/C [36] of 86.1% and a viability, T/C (second compound 3 µM, first compound 0.316 µM) of 94.8%. For the same compound, the viability, T/C (second compound 3 µM, first compound 1 µM) was 71.2%, the viability, T/C (second compound 3 µM, first compound 3.16 µM) was 54.7% and the viability, T/C (second compound 3 µM, first compound 10 µM) was 0.24%.
Compound `Cn1ncnc1[C@H]1c2n[nH]c(=O)c3cc(F)cc(c23)N[C@@H]1c1ccc(F)cc1` + C=CC(=O)N1CCN(c2nc(OCC3CCCN3C)nc3c2CCN(c2cccc4cccc(C)c24)C3)CC1CC#N has an IC50 (second compound 0.00949 µM) greater than 100 nM, an IC50 (second compound 0.03 µM) greater than 100 nM and an IC50 (second compound 0.0949 µM) greater than 100 nM. The IC50 (second compound 0.3 µM) was greater than 100 nM, the IC50 (second compound 0.949 µM) was greater than 100 nM and the IC50 (second compound 3 µM) was greater than 100 nM. For the same compound, the viability, T/C [1] was 88%, the viability, T/C [2] was 103% and the viability, T/C [3] was 85.6%. It also gave a viability, T/C [4] of 66.3%, a viability, T/C [5] of 84.8% and a viability, T/C [6] of 85.2%. The viability, T/C [7] was 96.5%, the viability, T/C [8] was 75.2% and the viability, T/C [9] was 77.3%. For the same compound, the viability, T/C [10] was 77.9%, the viability, T/C [11] was 95.6% and the viability, T/C [12] was 86.4%. For the same compound, the viability, T/C [13] was 86.7%, the viability, T/C [14] was 100% and the viability, T/C [15] was 75%. It also gave a viability, T/C [16] of 81.2%, a viability, T/C [17] of 82.6% and a viability, T/C [18] of 78.6%. For the same compound, the viability, T/C [19] was 78.3%, the viability, T/C [20] was 90.9% and the viability, T/C [21] was 75.7%. For the same compound, the viability, T/C [22] was 71.9%, the viability, T/C [23] was 72.7% and the viability, T/C [24] was 86.2%. It also gave a viability, T/C [25] of 61.8%, a viability, T/C [26] of 74.2% and a viability, T/C [27] of 78.8%. It also gave a viability, T/C [28] of 65.7%, a viability, T/C [29] of 74.9% and a viability, T/C [30] of 63.1%. It also gave a viability, T/C [31] of 96.7%, a viability, T/C [32] of 80.2% and a viability, T/C [33] of 88.3%. For the same compound, the viability, T/C [34] was 88.5%, the viability, T/C [35] was 77.6% and the viability, T/C [36] was 83.9%.
